Test results taken from PMC10692717, “Peptides designed from a bacteriophage capsid protein function as synthetic transcription repressors” (The Journal of Biological Chemistry, 2023).
Like-named read-outs stand apart in the source and are kept apart here. Where no end group is shown, it is not given here.

Legend:
[1] = biological target: peptide 33 (bacteriophage P4 (designed variant)) (UniProt P05460); assay: EMSA; conditions: EMSA/competition: 10 mM Tris-HCl pH 8.0, 250 mM NaCl, 37 C, 10 min, 10 nM labeled nucleic acid, fluorescence: 10 mM Tris-Cl pH 8, 500 mM NaCl, 20-37 C
bacterial cells = conditions: cited from earlier work
E. coli = conditions: also cause cell death; ref [29]; cited from earlier work
Description: (§1) AMPs are prevalent in all forms of life. They are part of the natural defense mechanism of the organism. […] Another such small peptide that has the potential to be useful against drug-resistant bac ...

bacteria = conditions: acts by blocking the synthesis of macromolecules; ref [28]; cited from earlier work
Description: as §1

[2] = biological target: peptide 33 (bacteriophage P4 (designed variant)) (UniProt P05460); assay: competition; conditions: EMSA/competition: 10 mM Tris-HCl pH 8.0, 250 mM NaCl, 37 C, 10 min, 10 nM labeled nucleic acid, fluorescence: 10 mM Tris-Cl pH 8, 500 mM NaCl, 20-37 C, scale: fold excess over 292 bp dsDNA for 50% release
dsDNA = conditions: ref [30], [31], [32]; cited from earlier work
Description: as §1

160 bp dsDNA
Kd [1]: 4000 nM

283 nt gfc RNA
Kd [1]: 1000 nM

292 bp dsDNA
Kd [1]: 2750 nM

499 bp dsDNA
Kd [1]: 4700 nM

NCC[C@H](O)C(=O)N[C@@H]1C[C@H](N)[C@@H](O[C@H]2O[C@H](CN)[C@@H](O)[C@H](O)[C@H]2O)[C@H](O)[C@H]1O[C@H]1O[C@H](CO)[C@@H](O)[C@H](N)[C@H]1O [amikacin]
elongated cell phenotype (bacterial cells; ref [21]): elongated cells phenotypes

O=C(N[C@H](CO)[C@H](O)c1ccc([N+](=O)[O-])cc1)C(Cl)Cl [chloramphenicol]
elongated cell phenotype (bacterial cells; ref [21], [22]): elongated cells phenotypes

O=C(O)c1cn(C2CC2)c2cc(N3CCNCC3)c(F)cc2c1=O [ciprofloxacin]
elongated cell phenotype (bacterial cells; ref [19]): elongated cells phenotypes

NC[C@H]1O[C@H](O[C@H]2[C@H](O)[C@@H](O[C@H]3O[C@H](CO)[C@@H](O)[C@H](N)[C@H]3O)[C@H](N)C[C@@H]2N)[C@H](O)[C@@H](O)[C@@H]1O [kanamycin]
elongated cell phenotype (bacterial cells; ref [20]): elongated cells phenotypes

ATCTTCTCTCATCCGCCAAAACAGCC [26-mer ssDNA (RS1816)]
Kd [1]: 2000 nM

HNP-1: human neutrophils-derived peptide defensin
inhibition of DNA, RNA, and protein synthesis (E. coli): inhibit the synthesis of DNA, RNA, and proteins

HNP-2: human neutrophils-derived peptide defensin (CYCRIPACIAGERRYGTCIYQGRLWAFCC; ends and bridges not checked; cysteine pairing not given here; UniProt P59665 66-94, looked up)
inhibition of DNA, RNA, and protein synthesis (E. coli): inhibit the synthesis of DNA, RNA, and proteins

HNP-3: human neutrophils-derived peptide defensin
inhibition of DNA, RNA, and protein synthesis (E. coli): inhibit the synthesis of DNA, RNA, and proteins

Pleurocidin
antibacterial activity (bacteria): broad-spectrum antibacterial activity

TGATCCTCCTCCTCCTGATCCTCCTCCTCCTGATCCTCCTCCTCCTGAGCGTTTCATCATTTCGAAGAAATCGTC [75-mer ssDNA (RS2230)]
Kd [1]: 740 nM
binding signal [2]: 9.5

gentamycin
elongated cell phenotype (bacterial cells; ref [23]): elongated cells phenotypes

indolicidin: 13-mer peptide with tryptophan-rich sequences of the cathelicidin family of host defense peptides (ILPWKWPWWPWRR; ends and bridges not checked; UniProt P33046 131-143, looked up)
binding to dsDNA (dsDNA): binds to dsDNA

lambda tR1 RNA (284 nt)
binding signal [2]: 2.8
